The values below come from patent US20070077283A1, “METHOD OF ENHANCING TRANSMUCOSAL DELIVERY OF THERAPEUTIC COMPOUNDS” (Nastech Pharmaceutical Company Inc., priority 2005, published 2007).

Broadly, the viability is a per cent measure of how many cells are alive, often set against a control. A higher viability goes with better survival.

One data set can be described thus: in vitro. Summed up:
(§1)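 EpiAirway cultures treated 1 h with each lipid; PBS as negative control. LDH released apically and basolaterally measured colorimetrically at 490 nm after 30 min substrate incubation at room temperature. Cytotoxicity expressed as percent of 1% Triton X-100 lysis control, set to 100%.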

The test system of data set [1] is human-derived tracheal/bronchial epithelial cells (EpiAirway Tissue Model). Briefly: in vitro. Summed up: as §1
The test system is the same in data set [2]. The experiment in a line: Cell viability (MTT assay). In kind it is cell-based. Conditions: for effect on cell viability (MTT assay): compared with control Special Sauce, data not shown (Example 3); for MTT levels (cell viability): compared with PBS negative control (Example 5). The gist of the method: (§2)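 EpiAirway inserts, after lipid dosing, incubated with MTT for 3 h at 37 °C, 5% CO2, then formazan extracted 2–24 h at room temperature in the dark. OD read at 570 nm minus 650 nm background. Viability given as percent of PBS-treated inserts, taken as 100%.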
A general note: Tetrazolium dyes change colour on reduction, which living cells bring about.

The test system is the same in data set [3]. Briefly: Insulin permeation across epithelial cell monolayer. It counts as cell-based. The conditions noted are these: for permeation of insulin (in words): 1000 μM in the presence of Buffer I and Buffer II. The method, then:
Also, the efficacy of a permeation enhancing lipid to enhance the permeation of insulin across and epithelial cell layer was measured. Refer to Example 2 of the instant application for general protocol details. […] Based on the FD3 permeation data in Table 8, the ability of the C16 PAF and C16 Enantiomeric PAF in the presence of Buffers I and II to enhance permeation of the biological agent insulin was assayed. Each lipid was tested at a 1000 μM concentration.

Data set [4] is described as follows: Cell viability (MTT assay). It counts as cell-based, human. Conditions: human; PN159 25 μM / PYY 13.67 mg/mL (High). Summed up:
as §2

Data set [5] deals with human-derived tracheal/bronchial epithelial cells (EpiAirway Tissue Model). The experiment in a line: Peptide YY (PYY) permeation across epithelial cell monolayer. In kind it is cell-based. As to the method:
Permeation is expressed as percent permeation and was calculated as follows: [formula] [formula] Terms
In the instant example, the ability of permeation enhancing lipids to enhance the permeation of the biological agent, peptide YY (PYY; molecular weight of 3.7 kDa) across the epithelial cell monolayer model system (EpiAirway™) was measured. Also, the efficacy of a permeation enhancing lipid to enhance the permeation of insulin across and epithelial cell layer was measured. Refer to Example 2 of the instant application for general protocol details.

The mark [6] stands for this setting: % Cytotoxicity, lipid 1000 μM in Buffer I, apical LDH release.
Setting [7] is: % Cytotoxicity, lipid 1000 μM in Buffer II, apical LDH release.
[8] abbreviates: in the presence of FITC-Dextran FD3 (Table 6).
Where [9] appears, read: in the presence of FITC-Dextran FD10 (Table 6).
The mark [10] stands for this setting: in the presence of FITC-Dextran FD40 (Table 6).
[11] abbreviates: in the presence of FITC-Dextran FD70 (Table 6).
Setting [12] is: in the presence of FITC-Dextran FD500 (Table 6).
The mark [13] stands for this setting: lipid 500 μM / PYY 13.67 mg/mL (High).

As for `CCCCCCCCCCCCCCCCOC[C@H](COP(=O)([O-])OCC[N+](C)(C)C)OC(C)=O` [C16-02:0 PC(C16 PAF), 1-O-Hexadecyl-2-Acetoyl-sn-Glycero-3-Phosphocholine], the cytotoxicity at 1 h, 1000 μM in the data set “in vitro” (setting [6]) was 43%; in “in vitro” (setting [7]), 13%. The molecule also registered a cytotoxicity at 1 h in “in vitro” (% Cytotoxicity, lipid / PYY 10 mg/mL) of 23%. Moreover, the “% Relative Cytotoxic Effect (LDH)” value in data set [1] (setting [8]) is 32%; in data set [1] (setting [9]) it was 35%; in data set [1] (setting [10]), 31%; in data set [1] (setting [11]), 35%; in data set [1] (setting [12]), 26%. Besides, the “Mean % Relative Cytotoxic Effect (LDH)” value was 20% in data set [1] (lipid 500 μM (Table 4)) and 32% in data set [1] (lipid 1000 μM (Table 4)). Also, in data set [2], the “effect on cell viability (MTT assay)” value is recorded as “did not reduce cell viability below that of Special Sauce”. Also, the “permeation of insulin (in words)” value in data set [3] is given as “enhance the permeation of insulin across an epithelial cell monolayer”. The permeation of insulin entry in data set [3] (lipid 1000 μM (Example 6)) is listed as “more than 3%”. Moreover, the “% Insulin Permeation” value in data set [3] (lipid 1000 μM in Buffer I) was 4%; in data set [3] (lipid 1000 μM in Buffer II), 8%; in data set [3] (lipid 1000 μM in PBS), 3%.
As for `C=CCC(=O)O[C@H](COCCCCCCCCCCCCCCCC)COP(=O)([O-])OCC[N+](C)(C)C` [C16-04:1 PC], the “Mean % Relative Cytotoxic Effect (LDH)” value worked out at 18% in data set [1] (human, 1 h, 500 μM) and 27% in data set [1] (human, 1 h, 1000 μM). Besides, in data set [2], the “effect on cell viability (MTT assay)” value is “did not reduce cell viability below that of Special Sauce”.
In the data set “in vitro”, `CC(C)C[C@H](NC(=O)[C@H](C)NC(=O)[C@H](CCCCN)NC(=O)[C@H](CC(C)C)NC(=O)[C@H](C)NC(=O)[C@H](CC(C)C)NC(=O)[C@H](CCCCN)NC(=O)[C@H](CC(C)C)NC(=O)[C@H](C)NC(=O)[C@H](CC(C)C)NC(=O)[C@@H](N)CCCCN)C(=O)N[C@@H](CCCCN)C(=O)N[C@@H](C)C(=O)N[C@@H](C)C(=O)N[C@@H](CC(C)C)C(=O)N[C@@H](CCCCN)C(=O)N[C@@H](CC(C)C)C(=O)N[C@@H](C)C(N)=O` [PN159, reference compound] yielded a cytotoxicity at 1 hour, 25 μM of 33%. The molecule further displayed a viability at 25 µM in data set [4] of 89%. For the same molecule, in data set [5] (PN159 25 μM / PYY 13.67 mg/mL (High)), the “% PYY Permeation” value is 3.71%.
On to `CCCCCCCCCCCCCCCCOC[C@@H](COP(=O)([O-])OCC[N+](C)(C)C)OC(C)=O` [C16 Enantiomeric PAF, 3-O-Hexadecyl-2-Acetoyl-sn-Glycero-1-Phosphocholine], for which the cytotoxicity at 1 h, 1000 μM in the data set “in vitro” (setting [6]) came to 34%; in the data set “in vitro” (setting [7]), 14%. The “% Relative Cytotoxic Effect (LDH)” value in data set [1] (setting [8]) was determined as 34%; in data set [1] (setting [9]) it was 32%; in data set [1] (setting [10]), 36%; in data set [1] (setting [11]), 31%; in data set [1] (setting [12]), 33%. In addition, the “Mean % Relative Cytotoxic Effect (LDH)” value in data set [1] (lipid 1000 μM (Table 4)) was determined as 35%. Besides, in data set [3], the “permeation of insulin (in words)” value is given as “enhance the permeation of insulin across an epithelial cell monolayer”. Also, the “% Insulin Permeation” value in data set [3] (lipid 1000 μM in Buffer I) is reported as 3%; in data set [3] (lipid 1000 μM in Buffer II) it was 8%.
In “in vitro” (human, % Cytotoxicity), `CCCCCCCCCCCCCCCC(=O)OC[C@H](COP(=O)([O-])OCC[N+](C)(C)C)OC(=O)CCCC(=O)O` [PGPC, 1-Palmitoyl-2-Glutaroyl-sn-Glycero-3-Phosphocholine] yielded a cytotoxicity at 1 h, 500 μM of 2%. Further, the LDH levels entry in data set [1] (human, 1 h) is given as “below 30%”. Further, the “Cytotoxic Effect (LDH) 1 hr. Post-treatments” value in data set [1] (human, 1 h, 62.5 μM) turned out to be 2%; in data set [1] (human, 1 h, 125 μM), 2%; in data set [1] (human, 1 h, 250 μM) it was 4%; in data set [1] (human, 1 h, 500 μM) it was 13%; in data set [1] (human, 1 h, 1000 μM) it was 21%. Further, the “MTT levels (cell viability)” value in data set [2] is listed as “MTT levels comparable to that of the PBS negative control”. Also, the “% Cell Viability” value in data set [2] (setting [13]) was found to be 113%. Also, the “% PYY Permeation” value in data set [5] (setting [13]) was found to be 0.13%.
For the molecule `CCCCCCCCCCCCCCCC(=O)OC[C@H](COP(=O)([O-])OCC[N+](C)(C)C)OC(=O)CCCC=O` [POVPC, 1-Palmitoyl-2-(5′-oxo-Valeroyl)-sn-Glycero-3-Phosphocholine], the cytotoxicity at 1 h, 1000 μM in “in vitro” (setting [6]) and in “in vitro” (setting [7]) was 15% in each case. In addition, the “% Relative Cytotoxic Effect (LDH)” value in data set [1] (setting [8]) is given as 19%; in data set [1] (setting [9]), 11%; in data set [1] (setting [10]), 13%; in data set [1] (setting [11]) it was 13%; in data set [1] (setting [12]), 12%. The “Cytotoxic Effect (LDH) 1 hr. Post-treatments” value in data set [1] (lipid 62.5 μM, percent of Triton-X100 LDH levels) was found to be 2%; in data set [1] (lipid 125 μM, percent of Triton-X100 LDH levels) it was 2%; in data set [1] (lipid 250 μM, percent of Triton-X100 LDH levels), 5%; in data set [1] (lipid 500 μM, percent of Triton-X100 LDH levels), 11%; in data set [1] (lipid 1000 μM, percent of Triton-X100 LDH levels) it was 21%. In addition, in data set [1] (lipid 1000 μM (Table 4)), the “Mean % Relative Cytotoxic Effect (LDH)” value is listed as 9%. In addition, in data set [1] (lipid 1000 μM, 15, 30 and 60 minute incubation), the “LDH levels for each incubation time period” value is “below 10%”. Further, the “MTT levels (cell viability)” value in data set [2] is “MTT levels comparable to that of the PBS negative control”. The “effect on cell viability (MTT assay)” value in data set [2] is given as “did not reduce cell viability below that of the control Special Sauce”.
`CCCCCCCCCCCCCCCCCCOC[C@H](COP(=O)([O-])OCC[N+](C)(C)C)OC(C)=O` [C18-02:0 PC(C18 PAF), 1-O-Octadecyl-2-Acetoyl-sn-Glycero-3-Phosphocholine] had a cytotoxicity at 1 h, 1000 μM in “in vitro” (human, % Cytotoxicity) of 33%. For the same molecule, the “Mean % Relative Cytotoxic Effect (LDH)” value in data set [1] (human, 1 h, 500 μM) was 8%; in data set [1] (human, 1 h, 1000 μM), 20%. For the same molecule, the “% Cytotoxicity” value in data set [1] (human, 1 h, 1000 μM) turned out to be 17%. The “effect on cell viability (MTT assay)” value in data set [2] is listed as “did not reduce cell viability below that of Special Sauce”.
